Source: US20210154162A1, “DRUG AND PHARMACEUTICAL COMPOSITION CONTAINING TRANSPORT PROTEIN INHIBITOR, AND USE” (Institute of Basic Medical Sciences Chinese Academy of …, priority 2018, published 2021)

Assays:
PAT4 and SLC7A8 [1] = experiment: Effect of Kyn on the expression of PAT4 and SLC7A8 in OT-1 CD8+ T cells (fluorescence quantitative PCR); assay type: cell-based; settings: activated mouse CD8+ T cells, 200 μM Kyn, 48 h
Protocol: Splenic CD8^+ T cells of OT-1 mice were obtained by magnetic bead sorting, and seeded into a 24-well plate (1 million cells/well) while anti-CD3/CD28 magnetic beads were added to activate T cells. The culture medium was RPMI-1640 added with 10 ng/mL mouse IL-2 and […] β-mercaptoethanol. Cells were grouped and treated with drugs as follows. Control group 1 (PBS): culture medium+PBS; Experimental group 2 (Kyn): culture medium+200 μM Kyn; RNA was collected from cells in each group after 48 h, and the expression of PAT4 and SLC7A8 was determined by fluorescence quantitative PCR.

PD-1 [2] = experiment: PD-1 expression in resting CD8+ T cells treated with Kyn (flow cytometry); assay type: cell-based, mouse
Protocol: (1) CD8^+ T cells were treated with Kyn (200 μM) for the time periods. The expression of PD-1 was determined by flow cytometry.

PD-1 [3] = experiment: OVA-B16 melanoma-bearing mice with adoptively transferred CFSE-labeled OT-1 T cells, PD-1 expression; assay type: in vivo, mouse; settings: Kyn 50 μg/mouse i.p. once every two days, three times; Day 7
Protocol: (6) C57BL/6 mice with 5×5 mm OVA-B16 melanoma were adoptively transferred with CFSE-labeled OT-1 CD8^+ T cells (4×10^6 cells/mouse, once every three days) on three occasions. At the same time, some mice were i.p. injected with Kyn (50 μg/mouse, once every two days) for three times. On Day 7 after transferring, CFSE^+CD8^+ T cells were isolated from tumor for flow cytometric analysis of PD-1 expression.
(8) The experimental steps were the same as those of step (7), except that C57BL/6 mice were treated with Kyn, DMF (5 μg/mouse, o.t., twice every day) or Kyn+DMF for 6 days. CFSE^+CD8^+ T cells from tumor were isolated for flow cytometric analysis of PD-1 expression.

PD-1 [4] = experiment: PD-1 expression in anti-CD3/CD28 bead-activated CD8+ T cells treated with Kyn or other tryptophan metabolites (flow cytometry); assay type: cell-based, mouse; settings: Kyn at different concentrations; 200 μM for different time periods; anti-CD3/CD28 microbeads
Protocol: (4) The isolated splenic CD8^+ T cells were incubated with anti-CD3/CD28 beads in the presence of different concentrations of Kyn. PD-1 expression was determined by flow cytometry.
(5) The experimental steps were the same as those of step (4), except that CD8^+ T cells were treated with 200 μM Kyn for different time periods as shown in FIG. 2E.
(6) Anti-CD3/CD28 bead-activated CTLs were treated with PBS, 200 μM Kyn or other metabolites (500 μM) from the tryptophan pathway (melatonin, kynurinic acid and indoxyle sulphate). After 24 h, PD-1 expression was determined by flow cytometry.

PD-1 promoter = PD-1 promoter luciferase reporter in HEK293T cells; assay type: cell-based; settings: Kyn 48 h
Protocol: (6) HEK293T cells were transiently co-transfected with the luciferase reporter PGL3 coupled to the PD-1 promoter together with an AhR or an empty plasmid for 24 h and then treated with Kyn for another 48 h.

PAT4 and SLC7A8 [5] = experiment: PAT4 and SLC7A8 expression in activated CD8+ T cells (real-time PCR, immunostaining); assay type: cell-based, mouse; settings: activated CD8+ T cells, Kyn 200 μM, 24 h
Protocol: (2) Activated CD8^+ T cells were treated with PBS or Kyn (200 μM) for 24 h. The expression of PAT4 and SLC7A8 was determined by real-time PCR (left) and immunostaining (right). Bar, […].
(6) The mRNA expression of PAT4 and SLC7A8 was determined in activated CD8^+ T cells treated with PBS, Kyn, Kyn/CH-223191 (10 μM) or Kyn/DMF (20 μM) for 48 h.

AhR = AhR localisation and expression in CD8+ T cells (confocal microscopy, western blot); assay type: cell-based, mouse; settings: 48 h
Protocol: (1) CD8^+ T cells isolated from spleen were stimulated with 200 μM Kyn or Kyn+anti-CD3/CD28 beads for 48 h. CD8^+ T cells were fixed, stained with an anti-AhR antibody and imaged by confocal microscopy. Bar, […]. (2) The experimental steps were the same as those of step (1), except that the cytoplasmic and nuclear protein fractions were seperated prior to the western blot analysis of AhR. The intensity relative to that in the resting/Kyn group was calculated. (3) Western blot analysis of AhR expression in both resting CD8^+ T cells and anti-CD3/CD28 bead-activated CD8^+ T cells treated with PBS or Kyn (200 μM) for 48 h was carried out. AhR ratio of Nuc/Cyt was calculated relative to that in the Kyn (−) group.

PAT4 and SLC7A8 [6] = experiment: PAT4 and SLC7A8 expression in CD8+ T cells from breast cancer patients (real-time PCR); assay type: cell-based, human; settings: human CD8+ T cells, Kyn, 48 h
Protocol: (8) CD8^+ T cells from breast cancer patients were treated with PBS, Kyn ([…] (20 μM) or Kyn/CH (50 μM) for 48 h. The expression of PAT4 and SLC7A8 was determined by real-time PCR. The determination results were as shown in FIG. 7I.

SMILES: Nc1ccccc1C(=O)CC(N)C(=O)O (centres unmarked) [Kyn, kynurenine]
- expression of PAT4 and SLC7A8 (PAT4 and SLC7A8 [1]): significantly upregulating
- time point of initial increase of PD-1 (PD-1 [2]; Kyn alone): 48 h
- PD-1 expression (PD-1 [2]; Kyn alone 200 μM): enough to upregulate PD-1
- PD-1 expression in tumor-infiltrating CFSE+ T cells (PD-1 [3]): much higher levels of PD-1 expression
- PD-1 expression (PD-1 [4]): markedly upregulated
- increase of the luciferase activity (PD-1 promoter; HEK293T overexpressing AhR): 12 fold
- increase of the luciferase activity (PD-1 promoter; HEK293T with intrinsic AhR expression (empty control plasmid)): 4 fold
- expression of SLC7A8 and PAT4 (PAT4 and SLC7A8 [5]): strikingly resulted in the upregulation
- AhR localisation (AhR; activated T cells, 200 μM Kyn): translocation of cytoplasmic AhR to the nucleus
- AhR expression (AhR; resting T cells, Kyn 200 μM, further increased in activated T cells): upregulated
- expression of SLC7A8 and PAT4 (PAT4 and SLC7A8 [6]): upregulated
